The source of these data is patent US12421254B2, “KRAS modulators and uses thereof” (Quanta Therapeutics, Inc., priority 2023, dated 2025).

The subject of one test is phospho-ERK in AGS cells. Nature of the test: pERK In Cell Western (ICW) assay (Method B), AGS. It is filed as cell-based. The following applies: Homo sapiens, Table 2, 3 hours. In short, it runs like this:
(§1)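 3 h cpd, 37 °C, ½-log 9-pt dilution; AGS 5,000 cells/well, GP2D/SW620 10,000 cells/well, plated overnight. PFA fix, Triton perm, anti-pERK o/n 4 °C, IRDye 800 secondary + DRAQ5. pERK/DRAQ5 as % blank; IC50 4-PL.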

In test [1] the test system is phospho-ERK in SW620 (KRAS-G12V) cells. Kind of test: pERK In Cell Western (ICW) assay (Method B), SW620. The settings on record: Homo sapiens, SW-620, 3 h, Table 4. It is filed as cell-based. In a few lines: as §1

What is called IC50 is the concentration that inhibits the measured activity by half. The low end stands for higher potency, the high end for lower potency. Regarding `N#Cc1c(N)sc2c1C1(CC2)CN(c2nc(OCC34CCCN3CC(F)C4)nc(N3CC4CCC(C3)N4)n2)C1` [Compound 1, 2-amino-1′-[4-(3,8-diazabicyclo[3.2.1]octan-3-yl)-6-[[(2R,8S)-2-fluoro-1,2,3,5,6,7-hexahydropyrrolizin-8-yl]methoxy]-1,3,5-triazin-2-yl]spiro[5,6-dihydrocyclopenta[b]thiophene-4,3′-azetidine]-3-carbonitrile], the IC50 with phospho-ERK in AGS cells lay in the range of 0.1 to 1 µM.
The same measure, in the same setting: the same measure for `N#Cc1c(N)sc2c1C1(CC2)CN(c2nc(OCC3(CN4CCOCC4)CC3)nc(N3C[C@H]4CC[C@@H](C3)N4)n2)C1` [Compound 2, 2-amino-1′-[4-[[1-(morpholinomethyl)cyclopropyl]methoxy]-6-[(1R,5S)-3,8-diazabicyclo[3.2.1]octan-3-yl]-1,3,5-triazin-2-yl]spiro[5,6-dihydrocyclopenta[b]thiophene-4,3′-azetidine]-3-carbonitrile]: 0.1 to 1 µM.
On the same count and under the same terms, the same measure for `N#Cc1c(N)sc2c1C1(CCC2)CN(c2nc(OCC3(CN4CCOCC4)CC3)nc(N3C[C@H]4CC[C@@H](C3)N4)n2)C1` [Compound 3, 2-amino-1′-[4-[(1R,5S)-3,8-diazabicyclo[3.2.1]octan-3-yl]-6-[[1-(morpholinomethyl)cyclopropyl]methoxy]-1,3,5-triazin-2-yl]spiro[6,7-dihydro-5H-benzothiophene-4,3′-azetidine]-3-carbonitrile]: 0.1 to 1 µM.
In test [1], `N#Cc1c(N)sc2c1C1(CC2)CN(c2nc(OCC3(CN4CCOCC4)CC3)nc(N3CCCC4(C3)NC(=O)NC4=O)n2)C1` (centres unmarked) [Compound 7, 2-amino-1′-[4-(2,4-dioxo-1,3,9-triazaspiro[4.5]decan-9-yl)-6-[[1-(morpholinomethyl)cyclopropyl]methoxy]-1,3,5-triazin-2-yl]spiro[5,6-dihydrocyclopenta[b]thiophene-4,3′-azetidine]-3-carbonitrile] had an IC50 of 1000 to 20000 nM.
As to `C[C@@]1(O)CCCN(c2nc(OC[C@@]34CCCN3C[C@H](F)C4)nc(N3CC4(CCc5sc(N)c(C#N)c54)C3)n2)C1` [Compound 10, 2-amino-1′-[4-[[(2R,8S)-2-fluoro-1,2,3,5,6,7-hexahydropyrrolizin-8-yl]methoxy]-6-[(3R)-3-hydroxy-3-methyl-1-piperidyl]-1,3,5-triazin-2-yl]spiro[5,6-dihydrocyclopenta[b]thiophene-4,3′-azetidine]-3-carbonitrile], the IC50 in the test on phospho-ERK in AGS cells is 0.1 to 1 µM; in test [1], 100 to 1000 nM.
Taken in the same sequence, the figures for `N#Cc1c(N)sc2c1C1(CC2)CN(c2nc(OC[C@@]34CCCN3C[C@H](F)C4)nc(N3CCCC(C#N)C3)n2)C1` (stereo partly drawn) [Compound 13, 2-amino-1′-[4-(3-cyano-1-piperidyl)-6-[[(2R,8S)-2-fluoro-1,2,3,5,6,7-hexahydropyrrolizin-8-yl]methoxy]-1,3,5-triazin-2-yl]spiro[5,6-dihydrocyclopenta[b]thiophene-4,3′-azetidine]-3-carbonitrile] were 1 to 10 µM and 100 to 1000 nM.
